Reference: US11939307B2, “Phenylmethyl-piperazine derivatives and antiviral uses thereof” (INSTITUTE OF MEDICINAL BIOTECHNOLOGY, CHINESE ACADEMY OF …, priority 2019, dated 2024)

Test system: HCV
Experiment: Assay of anti-HCV activity in HCV-infected Huh7.5 cells (intracellular HCV RNA by one-step quantitative RT-PCR)
Format: cell-based
Conditions: Hepatitis C virus; compound at 1 μM; Huh7.5 cells infected with HCV; 96 hrs; intracellular HCV RNA vs viral control; read-out: inhibitory activities (inhibitory levels of the compounds against HCV replication)
Experimental: 100 μL Huh7.5 cells were seeded at a density of 1×10^5/mL in a 96-well cell culture plate and incubated in an incubator at 37° C., 5% CO2 and saturated humidity for 6 hrs. Then, while infecting Huh7.5 cells with viral solution containing HCV virus particles, the compounds of the present invention (including all specific compounds listed herein) were added at a concentration of 1 μM, respectively. After continuing incubation for 96 hrs, the total intracellular RNA was extracted separately, and the content of intracellular HCV RNA was measured by one-step quantitative RT-PCR, compared with the RNA level of the viral control, and the inhibition rate of the compounds against HCV was calculated.

| SMILES | inhibition at 1 µM [%] |
| --- | --- |
| CC1CN(c2ccc(Br)c(C(F)(F)F)c2)CCN1Cc1cc(N(C)CCN(C)C)ccc1C(F)(F)F (stereo not shown) [Compound 33, N^1-(3-((4-(4-bromo-3-(trifluoromethyl)phenyl)-2-methylpiperazin-1-yl)methyl)-4-(trifluoromethyl)phenyl)-N^1,N^2,N^2-trimethylethan-1,2-diamine] | > 75 |
| CCCC1CN(c2ccc(C(F)(F)F)cc2)CCN1Cc1cc(N2CCCN(C)CC2)ccc1C(F)(F)F (stereo not shown) [Compound 34, 1-methyl-4-(3-((2-propyl-4-(4-(trifluoromethyl)phenyl)piperazin-1-yl)methyl)-4-(trifluoromethyl)phenyl)-1,4-diazepane] | > 75 |
| CCN1CCCN(c2ccc(C(F)(F)F)c(CN3CCN(c4ccc(C)c(Cl)c4)CC3)c2)CC1 [Compound 35, 1-(3-((4-(3-chloro-4-methylphenyl)piperazin-1-yl)methyl)-4-(trifluoromethyl)phenyl)-4-ethyl-1,4-diazepane] | > 75 |
| CN1CCCN(c2ccc(C(F)(F)F)c(CN3CCN(c4ccc(F)cc4)CC3)c2)CC1 [Compound 36, 1-(3-((4-(4-fluorophenyl)piperazin-1-yl)methyl)-4-(trifluoromethyl)phenyl)-4-methyl-1,4-diazepane] | > 75 |
| CN1CCCN(c2ccc(C(F)(F)F)c(CN3CCN(c4ccc(F)c(Cl)c4)CC3)c2)CC1 [Compound 37, 1-(3-((4-(3-chloro-4-fluorophenyl)piperazin-1-yl)methyl)-4-(trifluoromethyl)phenyl)-4-methyl-1,4-diazepane] | > 75 |
| CN(CCN1CCCC1)c1ccc(C(F)(F)F)c(CN2CCC(c3ccc(Cl)cc3)CC2)c1 [Compound 39, 3-((4-(4-chlorophenyl)piperidin-1-yl)methyl)-N-methyl-N-(2-(pyrrolidin-1)ethyl)-4-(trifluoromethyl)aniline] | > 75 |
| Cc1cc(N2CCN(Cc3cc(N4CCCN(C)CC4)ccc3C(F)(F)F)CC2)ccc1Cl [Compound 40, 1-(3-((4-(4-chloro-3-methylphenyl)piperazin-1-yl)methyl)-4-(trifluoromethyl)phenyl)-4-methyl-1,4-diazepane] | > 75 |
| CN(C)CCN(C)c1ccc(C(F)(F)F)c(CN2CCN(c3ccc(Cl)c(F)c3)CC2)c1 [Compound 41, N^1-(3-((4-(4-chloro-3-fluorophenyl)piperazin-1-yl)methyl)-4-(trifluoromethyl)phenyl)-N^1,N^2,N^2-trimethylethan-1,2-diamine] | > 75 |
| CN(C)CCN(C)c1ccc(C(F)(F)F)c(CN2CCC(c3ccc(Cl)c(Cl)c3)CC2)c1 [Compound 42, N^1-(3-((4-(3,4-dichlorophenyl)piperidin-1-yl)methyl)-4-(trifluoromethyl)phenyl)-N^1,N^2,N^2-trimethylethan-1,2-diamine] | > 75 |
| Cc1cc(C2CCN(Cc3cc(N4CCCN(C)CC4)ccc3C(F)(F)F)CC2)ccc1Cl [Compound 43, 1-(3-((4-(4-chloro-3-methylphenyl)piperidin-1-yl)methyl)-4-(trifluoromethyl)phenyl)-4-methyl-1,4-diazepane] | > 75 |
| CN1CCCN(c2ccc(C(F)(F)F)c(CN3CCN(C(c4ccc(F)cc4)c4ccc(F)cc4)CC3)c2)CC1 [Compound 44, 1-(3-((4-(bis(4-fluorophenyl)methyl)piperazin-1-yl)methyl)-4-(trifluoromethyl)phenyl)-4-methyl-1,4-diazepane] | > 75 |
| Cc1ccc(C(c2ccc(C)cc2)N2CCN(Cc3cc(N4CCCN(C)CC4)ccc3C(F)(F)F)CC2)cc1 [Compound 45, 1-(3-((4-(bis(4-methylphenyl)methyl)piperazin-1-yl)methyl)-4-(trifluoromethyl)phenyl)-4-methyl-1,4-diazepane] | > 75 |
| CN1CCCN(c2ccc(C(F)(F)F)c(CN3CCN(C(c4ccc(Cl)cc4)c4ccc(Cl)cc4)CC3)c2)CC1 [Compound 46, 1-(3-((4-(bis(4-chlorophenyl)methyl)piperazin-1-yl)methyl)-4-(trifluoromethyl)phenyl)-4-methyl-1,4-diazepane] | > 75 |
| CN1CCCN(c2ccc(C(F)(F)F)c(CN3CCN(C(c4ccc(Br)cc4)c4ccc(Br)cc4)CC3)c2)CC1 [Compound 47, 1-(3-((4-(bis(4-bromophenyl)methyl)piperazin-1-yl)methyl)-4-(trifluoromethyl)phenyl)-4-methyl-1,4-diazepane] | > 75 |
| CC(C)c1ccc(C(c2ccc(C(C)C)cc2)N2CCN(Cc3cc(N4CCCN(C)CC4)ccc3C(F)(F)F)CC2)cc1 [Compound 48, 1-(3-((4-(bis(4-isopropylphenyl)methyl)piperazin-1-yl)methyl)-4-(trifluoromethyl)phenyl)-4-methyl-1,4-diazepane] | > 75 |
| CN(C)CCN(C)c1ccc(C(F)(F)F)c(CN2CCN(C(c3ccc(C4CC4)cc3)c3ccc(C4CC4)cc3)CC2)c1 [Compound 49, N^1-(3-((4-(bis(4-cyclopropylphenyl)methyl)piperazin-1-yl)methyl)-4-(trifluoromethyl)phenyl)-N^1,N^2,N^2-trimethylethan-1,2-diamine] | > 75 |
| CN(CCN1CCC1)c1ccc(C(F)(F)F)c(CN2CCN(C(c3ccc(Cl)cc3)c3ccc(Cl)cc3)CC2)c1 [Compound 50, N-(2-(azetidin-1-yl)ethyl)-3-((4-(bis(4-chlorophenyl)methyl)piperazin-1-yl)methyl)-N-methyl-4-(trifluoromethyl)aniline] | 50 to 75 |
| CN1CCCN(c2ccc(C(F)(F)F)c(CN3CCN(C(c4ccccc4)c4ccc(F)cc4)CC3)c2)CC1 (stereo not shown) [Compound 51, 1-(3-((4-((4-fluorophenyl)(phenyl)methyl)piperazin-1-yl)methyl)-4-(trifluoromethyl)phenyl)-4-methyl-1,4-diazepane] | > 75 |
| CN(C)CCN(C)c1ccc(C(F)(F)F)c(CN2CCN(C(c3ccc(Cl)cc3)c3ccc(Cl)cc3)CC2)c1 [Compound 52, N^1-(3-((4-(bis(4-chlorophenyl)methyl)piperazin-1-yl)methyl)-4-(trifluoromethyl)phenyl)-N^1,N^2,N^2-trimethylethan-1,2-diamine] | > 75 |
| CN(C)CCN(C)c1ccc(C(F)(F)F)c(CN2CCN(C(c3ccc(C(F)(F)F)cc3)c3ccc(C(F)(F)F)cc3)CC2)c1 [Compound 53, N^1-(3-((4-(bis(4-(trifluoromethyl)phenyl)methyl)piperazin-1-yl)methyl)-4-(trifluoromethyl)phenyl)-N^1,N^2,N^2-trimethylethan-1,2-diamine] | > 75 |
| CN(C)CCN(C)c1ccc(C(F)(F)F)c(CN2CCN(C(c3ccccc3)c3ccc(Cl)cc3)CC2)c1 (stereo not shown) [Compound 54, N^1-(3-((4-((4-chlorophenyl)(phenyl)methyl)piperazin-1-yl)methyl)-4-(trifluoromethyl)phenyl)-N^1,N^2,N^2-trimethylethan-1,2-diamine] | > 75 |
| CN1CCN(c2ccc(C(F)(F)F)c(CN3CCN(C(c4ccc(Cl)cc4)c4ccc(Cl)cc4)CC3)c2)CC1 [Compound 55, 1-(bis(4-chlorophenyl)methyl)-4-(5-(4-methylpiperazin-1-yl)-2-(trifluoromethyl)benzyl)piperazine] | > 75 |
